# Legend:
# CDK2 (human) [1] = molecular target: CDK2 (human) (UniProt P24941); assay: Enzyme Assay
# CDK2 (human) [2] = molecular target: CDK2 (human) (UniProt P24941); assay: Enzyme Assay; remark: listed apart in the source
IC50 (CDK2 (human) [1]) [µM],IC50 (CDK2 (human) [2]) [µM],Compound
1.45,1.45,Nc1nc(Nc2ccc(N3CCC(N4CCCC(O)C4)CC3)cc2)sc1C(=O)c1ccc2c(c1)OCCO2 (stereo not given)
10,10,NC(=O)c1cc(C(=O)c2sc(Nc3ccc(N4CCC(N5CCCC5)CC4)cc3)nc2N)ccc1O
10,10,Nc1nc(Nc2ccc(N3CCC(N4CCCC(O)C4)CC3)cc2)sc1C(=O)c1ccc(Cl)cc1 (stereo not given)

# Continued, molecule first:
Compound,IC50 (CDK2 (human) [1]) [µM],IC50 (CDK2 (human) [2]) [µM]
CCNC1CCN(c2ccc(Nc3nc(N)c(C(=O)c4cccc(F)c4)s3)cc2)CC1,1.01,1.01
CN(C)C1CCN(c2ccc(Nc3nc(N)c(C(=O)c4ccc([N+](=O)[O-])cc4)s3)cc2)CC1,10,10
